Where “and” joins values, the source holds several entries; their conditions need not be identical. Identical values can stand only once.
How the values were obtained:
NOD mice = experiment: Blood chemistry parameters in WCDD301-treated NOD mice; assay type: in vivo, mouse
Experimental: Terminal blood was collected into microfuge tubes containing K2-EDTA (supplemented by 45 mM phenylmethylsulphonyl fluoride and 0.77 μM aprotinin) through cardiac puncture. Plasma was separated by centrifugation (2,000g for 10 minutes at 4°C) and kept at –80°C until analysis. Plasma samples with hemolysis were excluded from the study. […] Values of BUN, creatinine, ALB, ALT, and AST were determined by a Roche Cobas C501 Autoanalyzer as performed by the Washington University Diabetes Research Center Translational Diagnostics Core. Reference intervals of blood chemistry parameters for inbred NOD mice were extracted from the Mouse Phenome Database (https://phenome.jax.org/).

[1] = system: mouse dispersed islet cells; experiment: Immunofluorescence: F-actin intensity in glucagon+ mouse dispersed islet cells; assay type: cell-based;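 as to F-actin intensity: ImageJ intensity within ROI drawn around each glucagon+ cell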
Experimental: Coverslips were treated with WCDD301, preclustered Ephrin-A5 Fc, or preclustered Fc in the following sequential order: KRBH (11 mM glucose, 30 minutes), KRBH (1 mM glucose, 60 minutes), KRBH (1 mM glucose, 30 minutes), and KRBH (11 mM glucose, 60 minutes). After treatment, coverslips were washed once in PBS, fixed in 2% paraformaldehyde in PBS (30 minutes), and again washed in PBS. […] Following wash in PBS, coverslips were incubated in a mixture of Alexa Fluor 555 Phalloidin (Cell Signaling Technology, catalog 8953) and secondary antibodies (goat anti-rabbit Alexa Fluor 488, catalog A-21094, 1:1,000, Molecular Probes; and goat anti-mouse Alexa Fluor 633, catalog A21052, 1:1,000, Life Technologies) for 1 hour at RT. Both primary and secondary antibodies were diluted in blocking buffer containing 0.05% Tween 20. Coverslips were washed using PBS and counterstained by using DAPI (1:1,000) for 10 minutes. Following 2 washes in PBS, coverslips were mounted on glass slides using ProLong Glass Antifade Mountant (Invitrogen, catalog P36980). Images were captured using the Zeiss LSM880 microscope with a Plan-Apochromat 63× 1.4 NA objective lens by setting dual-band dichroic/filter for 405, 488, 561, and 633 nm laser excitation. For each slide, 25–30 fields of view were scanned, and in each field of view, 3–5 cells were imaged. […] Values of intensity were compared among groups using 1-way ANOVA, α = 0.05.

[2] = system: human donor dispersed islet cells; experiment: Insulin secretion from healthy human donor dispersed islet cells; assay type: cell-based; design: Insulin secretion: unit not given here
Experimental: (§1) Pancreata of nondiabetic C57BL/6J mice were digested using collagenase P (Roche Diagnostics, catalog 11213873001), and islets were manually picked up using a stereomicroscope (ZEISS Stemi 305). […] Isolated mouse islets or provided human islets were dispersed as described ([28]). Briefly, 100–120 islets were washed 2 times using modified HBSS, then dispersed in 600 μL Accutase (Innovative Cell Technologies, catalog AT-104) by gently pipetting up and down for 7 minutes at 37°C. […] Following refreshing of KRBH, cells were dispensed in 8 microfuge tubes (2,000 cells/tube) and treated with WCDD301, preclustered Ephrin-A5 Fc, or preclustered Fc in the presence or absence of the competitive inhibitor of EphA4 receptor, rhyncophylline ([60]) (MilliporeSigma, catalog SML2345). In the presence or absence of these effectors, secretion assay was performed sequentially as shown in Supplemental Table 5. […] Preclustering of Ephrin-A5 Fc was done by mixing Ephrin-A5 Fc or Fc alone (BioLegend, catalog 790102) with anti-Fc antibody (Invitrogen, catalog A16086) (1:10 molar ratio) 20 minutes before treatment ([62]). […] Shedding of cleaved EphA4 was measured from the cell culture medium. Experiments were performed by dispersion of 200 islets, and EphA4 levels in media were measured by EphA4 ELISA (ABclonal, catalog RK06572).
The Integrated Islet Distribution Program provided us human donor islets with their characteristics (Supplemental Table 6). Islets were centrifuged at 500g for 3 minutes, resuspended in CMRL 1066 medium (Gibco, catalog 1150-037) containing 11 mM glucose, and rested in an incubator overnight.
For the hormone secretion assay, islets or dispersed islet cells were adapted in KRBH buffer containing 11 mM glucose for 1 hour. Then, after 2 washes in HBSS containing 11 mM glucose, islets or cells were treated in the following sequential order in the presence or absence of WCDD301: incubation in KRBH (1 mM glucose, 30 minutes) followed by medium collection, incubation in KRBH (11 mM glucose, 30 minutes) followed by medium collection.

[3] = system: murine dispersed islet cells; experiment: Insulin secretion from murine dispersed islet cells; assay type: cell-based, mouse; details: for Relative secretion of insulin: one value per mouse
Experimental: as §1

[4] = Glucose (1 mM), WCDD301 0.75 µM
[5] = Glucose (11 mM), WCDD301 0.75 µM
[6] = Glucose (11 mM), WCDD301 1.5 µM

CC(=O)OCC(N)(COC(C)=O)COC(C)=O [WCDD301, 2-(acetoxymethyl)-2-aminopropane-1,3-diyl diacetate] was tested, and the “Blood chemistry markers (BUN, creatinine, ALB, ALT, AST)” value (NOD mice; WCDD301-treated animals) was “remained in the normal range”, the “Creatinine (CREAT)” value (NOD mice; non-diabetic NOD mice, 19-week-old, treated with WCDD301, mean ± SEM, n=5, reference interval 0.2-0.5) was 0.2 ± 0.1 mg/dL and the “Albumin (ALB)” value (NOD mice; non-diabetic NOD mice, 19-week-old, treated with WCDD301, mean ± SEM, n=5, reference interval 1.72-3.54) was 3 ± 0.1 g/dL. The “Alanine aminotransferase (ALT)” value (NOD mice; non-diabetic NOD mice, 19-week-old, treated with WCDD301, mean ± SEM, n=5, reference interval 5-394) was 20.5±9.5 IU/L, the “Blood urea nitrogen (BUN)” value (NOD mice; non-diabetic NOD mice, 19-week-old, treated with WCDD301, mean ± SEM, n=5, reference interval 10-79) was 21 ± 2.3 mg/dL and the “Aspartate aminotransferase (AST)” value (NOD mice; non-diabetic NOD mice, 19-week-old, treated with WCDD301, mean ± SEM, n=5, reference interval 18-586) was 99.5±57.5 IU/L. For the same molecule, the “Effect on intracellular F-actin” value ([1]; dispersed mouse islet cells) was “increased intracellular F-actin intensity”, the F-actin intensity ([1]; mouse cells, individual values, Figure 3F) was 7.9 and 8.3 and 9.3 and 13.4 and 7.5 and 18.4 and 8.1 and 17.0 and the “Effect on insulin secretion” value ([2]; 1, 3 or 6 hours exposure) was “transient effect”. The Insulin secretion ([2]; 1 hour exposure, WCDD301 0.75 µM, 1 mM (first group), Figure 2D) was 0.23 and 0.21 and 0.2, the Insulin secretion ([2]; 1 hour exposure, WCDD301 0.75 µM, head printed 1 mM (second group c4-c7), Figure 2D) was 0.277 and 0.233 and 0.25 and the Insulin secretion ([2]; 1 hour exposure, WCDD301 1.5 µM, 1 mM (first group), Figure 2D) was 0.247 and 0.17 and 0.22. The Insulin secretion ([2]; 1 hour exposure, WCDD301 1.5 µM, head printed 1 mM (second group c4-c7), Figure 2D) was 0.299 and 0.278 and 0.26, the Insulin secretion ([2]; 1 hour exposure, WCDD301 3 µM, 1 mM (first group), Figure 2D) was 0.133 and 0.134 and 0.23 and the Insulin secretion ([2]; 1 hour exposure, WCDD301 3 µM, head printed 1 mM (second group c4-c7), Figure 2D) was 0.196 and 0.199 and 0.27. For the same molecule, the Insulin secretion ([2]; 3 hours exposure, WCDD301 0.75 µM, 1 mM (first group), Figure 2E) was 0.188 and 0.216 and 0.2, the Insulin secretion ([2]; 3 hours exposure, WCDD301 0.75 µM, head printed 1 mM (second group c4-c7), Figure 2E) was 0.279 and 0.305 and 0.31 and the Insulin secretion ([2]; 3 hours exposure, WCDD301 1.5 µM, 1 mM (first group), Figure 2E) was 0.156 and 0.166 and 0.2. The Insulin secretion ([2]; 3 hours exposure, WCDD301 1.5 µM, head printed 1 mM (second group c4-c7), Figure 2E) was 0.227 and 0.252 and 0.3, the Insulin secretion ([2]; 3 hours exposure, WCDD301 3 µM, 1 mM (first group), Figure 2E) was 0.23 and 0.247 and 0.22 and the Insulin secretion ([2]; 3 hours exposure, WCDD301 3 µM, head printed 1 mM (second group c4-c7), Figure 2E) was 0.249 and 0.253 and 0.31. For the same molecule, the Insulin secretion ([2]; 6 hours exposure, WCDD301 0.75 µM, 1 mM (first group), Figure 2F) was 0.248 and 0.23 and 0.252, the Insulin secretion ([2]; 6 hours exposure, WCDD301 0.75 µM, head printed 1 mM (second group c4-c7), Figure 2F) was 0.383 and 0.391 and 0.37 and the Insulin secretion ([2]; 6 hours exposure, WCDD301 1.5 µM, 1 mM (first group), Figure 2F) was 0.257 and 0.265 and 0.24. The Insulin secretion ([2]; 6 hours exposure, WCDD301 1.5 µM, head printed 1 mM (second group c4-c7), Figure 2F) was 0.41 and 0.395 and 0.38, the Insulin secretion ([2]; 6 hours exposure, WCDD301 3 µM, 1 mM (first group), Figure 2F) was 0.185 and 0.176 and 0.25 and the Insulin secretion ([2]; 6 hours exposure, WCDD301 3 µM, head printed 1 mM (second group c4-c7), Figure 2F) was 0.327 and 0.324 and 0.4. For the same molecule, the “Insulin secretion (Supplemental Figure 4A; quantity not given)” value [2, 4] was 14.24 and 14.812 and 14.5, the “Insulin secretion (Supplemental Figure 4B; quantity not given)” value [2, 4] was 12.664 and 13.794 and 14 and the “Insulin secretion (Supplemental Figure 4C; quantity not given)” value [2, 4] was 11.67 and 7.26 and 14. For the same molecule, the “Insulin secretion (Supplemental Figure 4A; quantity not given)” value ([2]; Glucose (1 mM), WCDD301 1.5 µM) was 17.532 and 20.466 and 12, the “Insulin secretion (Supplemental Figure 4B; quantity not given)” value ([2]; Glucose (1 mM), WCDD301 1.5 µM) was 15.67 and 15.802 and 13.5 and the “Insulin secretion (Supplemental Figure 4C; quantity not given)” value ([2]; Glucose (1 mM), WCDD301 1.5 µM) was 13.328 and 14.218 and 10. For the same molecule, the “Insulin secretion (Supplemental Figure 4A; quantity not given)” value ([2]; Glucose (1 mM), WCDD301 3 µM) was 16.564 and 14.55 and 11.5, the “Insulin secretion (Supplemental Figure 4B; quantity not given)” value ([2]; Glucose (1 mM), WCDD301 3 µM) was 18.692 and 16.896 and 14 and the “Insulin secretion (Supplemental Figure 4C; quantity not given)” value ([2]; Glucose (1 mM), WCDD301 3 µM) was 12.61 and 13.59 and 9. The “Insulin secretion (Supplemental Figure 4A; quantity not given)” value [2, 5] was 22.29 and 19.8308 and 21, the “Insulin secretion (Supplemental Figure 4B; quantity not given)” value [2, 5] was 16.996 and 15.584 and 14.5 and the “Insulin secretion (Supplemental Figure 4A; quantity not given)” value [2, 6] was 29.994 and 17.548 and 22. For the same molecule, the “Insulin secretion (Supplemental Figure 4B; quantity not given)” value [2, 6] was 19.714 and 16.496 and 13, the “Insulin secretion (Supplemental Figure 4A; quantity not given)” value ([2]; Glucose (11 mM), WCDD301 3 µM) was 17.376 and 17.746 and 23 and the “Insulin secretion (Supplemental Figure 4B; quantity not given)” value ([2]; Glucose (11 mM), WCDD301 3 µM) was 17.584 and 17.686 and 13. The “Insulin secretion (Supplemental Figure 4C; quantity not given)” value ([2]; Glucose (11 mM), WCDD301 3 µM) was 16.66 and 13.592 and 8.5, the “Relative secretion of insulin” value ([3]; 301 (1.5 µM), Glucose (1 mM), Figure 1G) was 0.28 and 0.38 and 0.3 and 0.32 and 0.23 and the “Relative secretion of insulin” value ([3]; 301 (1.5 µM), Glucose (11 mM), Figure 1G) was 1.22 and 1.05 and 0.8 and 0.98 and 1.49. For the same molecule, the “Relative secretion of insulin” value ([3]; 301 (3 µM), Glucose (1 mM), Figure 1G) was 0.49 and 0.38 and 0.4 and 0.28 and 0.53, the “Relative secretion of insulin” value ([3]; 301 (3 µM), Glucose (11 mM), Figure 1G) was 0.67 and 1.1 and 0.98 and 1.25 and 0.63 and the “Effect on insulin secretion” value ([3]; Figure 1G) was “without significant effects”. The “Effect on insulin secretion in presence of rhyncophylline” value ([3]; WCDD301 3 μM, Supplemental Figure 3) was “no significant effect on insulin secretion”.

— publication PMC10906223 (JCI Insight, 2024)
